The results in this text go back to patent US5905068A, “Retroviral protease inhibiting compounds” (Abbott Laboratories, priority 1996, dated 1999).

The target in one series is HIV-1 protease (Human immunodeficiency virus type 1 group M subtype B, UniProt P04585). In words: Fluorogenic Assay for Screening Inhibitors of HIV Protease. Particulars: pH 4.5.
Series [1] can be described thus: Cytotoxicity in uninfected MT4 cells (MTT). In kind it is cell-based. Particulars: human, 5 days, n=four duplicate determinations, read-out: CTC50 (50% cytotoxicity concentration). The method, then:
The anti-HIV activity of the compound of the invention was determined in MF4 cells according to the following procedure: MT4 cells were infected with cell-free supernatant of HIVIIIB (previously frozen with known 50% tissue culture infectious dose (TCID50) at 0.003 multiplicity of infection (MOI)) for one hour. After one hour infection, cells were washed twice to remove residual viruses, resuspended in culture media and seeded into 96-well tissue culture plates at 1×10^4 cells per well with various half-log dilutions of compounds. Uninfected cells were included a toxicity and cell controls. […] All assay plates were incubated in a 37° C. incubator for 5 days. […] SDS (20%) with 0.02N HCl in water was added at 50 μL per well to lyse cells. Plates were incubated overnight for complete cell lysis and then read on a microtiter plate reader at 570/650 nm wavelengths to determine cell optical density (O.D.). Raw data was analysed for percent inhibition by the following formula: [formula]
The 50% cytotoxicity concentration (CTC50) was calculated using uninfected MT4 cells

The subject of the next series is HIVIIIB. Description: Antiviral Activity: anti-HIV activity in MT4 cells infected with HIVIIIB (MTT). The class given is cell-based. To be noted: Human immunodeficiency virus 1, 120 h, MOI 0.003, 5 days, n=four duplicate determinations. The method, then: The anti-HIV activity of the compound of the invention was determined in MF4 cells according to the following procedure: MT4 cells were infected with cell-free supernatant of HIVIIIB (previously frozen with known 50% tissue culture infectious dose (TCID50) at 0.003 multiplicity of infection (MOI)) for one hour. After one hour infection, cells were washed twice to remove residual viruses, resuspended in culture media and seeded into 96-well tissue culture plates at 1×10^4 cells per well with various half-log dilutions of compounds. Uninfected cells were included a toxicity and cell controls. RPMI 1640 media (GIBCO) with 10% fetal bovine serum was used as culture media. Various concentrations (50%, 25% and 12.5%) of human serum (SIGMA) were added to culture media resulting in final concentrations of 60%, 35% and 22.5% total serum. All assay plates were incubated in a 37° C. incubator for 5 days. The compound 3-[4,5-dimethylthiozol-2-yl]-2,5-diphenyltetrazolium bromide (MTT, SIGMA, 5 mg .mL stock in PBS) was then added to all wells at 25 μL per well and incubated for 4 hours. SDS (20%) with 0.02N HCl in water was added at 50 μL per well to lyse cells. Plates were incubated overnight for complete cell lysis and then read on a microtiter plate reader at 570/650 nm wavelengths to determine cell optical density (O.D.). Raw data was analysed for percent inhibition by the following formula: [formula]
The 50% effective concentration (EC50) was calculated by the median effect equation (Chou, 1975, Proc. Int. Cong. Pharmacol. 6th p. 619) to determine the efficacy of compound. The 50% cytotoxicity concentration (CTC50) was calculated using uninfected MT4 cells
Under these conditions, the data of Table 2 was obtained (n=four duplicate determinations).

pEC50: −log10 of the molar value.

Broadly, the inhibition is how much of the control response was suppressed. Read a low inhibition as little suppression. The term pEC50 denotes −log10 of the EC50, conventionally taken in molar units. Lower therefore signals a large EC50. Consider `Cc1cccc(C)c1OCC(=O)N[C@@H](Cc1ccccc1)[C@@H](O)C[C@H](Cc1ccccc1)NC(=O)OC1CCSC1` (mixture of isomers) [Example 30, (2S,3S,5S)-2-(2,6-Dimethylphenoxyacetyl)amino-5-(3(R,S)-tetrahydrothienyloxycarbonyl)amino-1,6-diphenyl-3-hydroxyhexane], for which, at HIV-1 protease, 0.0005 µM produced 52% inhibition. Further, the CC50 at 120 h in series [1] came out at 13.5 µM. The molecule further gave a pEC50 with HIVIIIB of 6.00.

Molecule `Cc1cccc(C)c1OCC(=O)N[C@@H](Cc1ccccc1)[C@@H](O)C[C@H](Cc1ccccc1)NC(=O)OC1CCCSC1` (mixture of isomers) [Example 31, (2S,3S,5S)-2-(2,6-Dimethylphenoxyacetyl)amino-5-(3(R,S)-tetrahydrothiopyranyloxycarbonyl)amino-1,6-diphenyl-3-hydroxyhexane] yielded an inhibition at 0.0005 µM at HIV-1 protease of 52%. Further, the CC50 at 120 h in series [1] is 53.3 µM. Further, in the series on HIVIIIB, the negative-log EC50 (pEC50) is 5.96.

On to `Cc1cc(N)cc(C)c1OCC(=O)N[C@@H](Cc1ccccc1)C[C@H](O)[C@H](Cc1ccccc1)NC(=O)O[C@H]1CO[C@H]2OCC[C@H]21` [Example 1, (2S,3S,5S)-5-(2,6-Dimethyl-4-amino-phenoxyacetyl)amino-2-((3R,3aS,6aR)-bis-tetrahydrofuran-3-yl-oxycarbonyl)amino-1,6-diphenyl-3-hydroxyhexane], for which 0.0005 µM produced 78% inhibition against HIV-1 protease. Also, in series [1], the CC50 at 120 h was 95 µM. In addition, the pEC50 in the series with HIVIIIB is 8.05.

Molecule `Cc1cc(N)cc(C)c1OCC(=O)N[C@@H](Cc1ccccc1)C[C@H](O)[C@H](Cc1ccccc1)NC(=O)O[C@@H]1CO[C@@H]2OCC[C@@H]21` [Example 2, (2S,3S,5S)-5-(2,6-Dimethyl-4-amino-phenoxyacetyl)amino-2-((3S,3aR,6aS)-bis-tetrahydrofuran-3-yl-oxycarbonyl)amino-1,6-diphenyl-3-hydroxyhexane] came in with an inhibition at 0.0005 µM against HIV-1 protease of 60%. Besides, the CC50 at 120 h in series [1] worked out at 90 µM. The same molecule showed a pEC50 in the series with HIVIIIB of 6.77.

As for `Cc1cc(N)cc(C)c1OCC(=O)N[C@@H](Cc1ccccc1)[C@@H](O)C[C@H](Cc1ccccc1)NC(=O)O[C@H]1CO[C@H]2OCC[C@H]21` [Example 3, (2S,3S,5S)-2-(2,6-Dimethyl-4-amino-phenoxyacetyl)amino-5-((3R,3aS,6aR)-bis-tetrahydrofuran-3-yl-oxycarbonyl)amino-1,6-diphenyl-3-hydroxyhexane], the inhibition at 0.0005 µM against HIV-1 protease worked out at 91%. Also, the CC50 at 120 h in series [1] came to 61 µM. In the series with HIVIIIB, this molecule gave a pEC50 of 8.10.

Molecule `Cc1cc(C)c(OCC(=O)N[C@@H](Cc2ccccc2)C[C@H](O)[C@H](Cc2ccccc2)NC(=O)O[C@H]2CO[C@H]3OCC[C@H]32)c(C)c1N` [Example 4, (2S,3S,5S)-5-(2,4,6-Trimethyl-3-amino-phenoxyacetyl)amino-2-((3R,3aS,6aR)-bis-tetrahydrofuran-3-yl-oxycarbonyl)amino-1,6-diphenyl-3-hydroxyhexane] showed an inhibition at 0.0005 µM against HIV-1 protease of 74%. The CC50 at 120 h in series [1] was determined as 41 µM. Moreover, the pEC50 with HIVIIIB was 7.49.

In turn, `Cc1cccc(C)c1OCC(=O)N[C@@H](Cc1ccccc1)C[C@H](O)[C@H](Cc1ccccc1)NC(=O)O[C@H]1CO[C@H]2OCC[C@H]21` [Example 5, (2S,3S,5S)-5-(2,6-Dimethyl-phenoxyacetyl)amino-2-((3R,3aS,6aR)-bis-tetrahydrofuran-3-yl-oxycarbonyl)amino-1,6-diphenyl-3-hydroxyhexane] came in with an inhibition at 0.0005 µM on HIV-1 protease of 87%. In series [1], the CC50 at 120 h is over 100 µM. This molecule gave a pEC50 in the series with HIVIIIB of 7.39.

In turn, `Cc1cccc(C)c1OCC(=O)N[C@@H](Cc1ccccc1)[C@@H](O)C[C@H](Cc1ccccc1)NC(=O)O[C@H]1CO[C@H]2OCC[C@H]21` [Example 6, (2S,3S,5S)-2-(2,6-Dimethyl-phenoxyacetyl)amino-5-((3R,3aS,6aR)-bis-tetrahydrofuran-3-yl-oxycarbonyl)amino-1,6-diphenyl-3-hydroxyhexane] registered an inhibition at 0.0005 µM at HIV-1 protease of 91%. The CC50 at 120 h in series [1] was over 100 µM. In addition, the pEC50 with HIVIIIB is 7.21.

Regarding `Cc1cccc(CO)c1OCC(=O)N[C@@H](Cc1ccccc1)C[C@H](O)[C@H](Cc1ccccc1)NC(=O)O[C@H]1CO[C@H]2OCC[C@H]21` [Example 7, (2S,3S,5S)-5-(2-Hydroxymethyl-6-methyl-phenoxyacetyl)amino-2-((3R,3aS,6aR)-bis-tetrahydrofuran-3-yl-oxycarbonyl)amino-1,6-diphenyl-3-hydroxyhexane], at HIV-1 protease, testing at 0.0005 µM gave an inhibition of 88%. Further, in series [1], the CC50 at 120 h came to 82 µM. In addition, the pEC50 in the series with HIVIIIB is 7.43.

`Cc1ncnc(C)c1OCC(=O)N[C@@H](Cc1ccccc1)C[C@H](O)[C@H](Cc1ccccc1)NC(=O)O[C@H]1CO[C@H]2OCC[C@H]21` [Example 8, (2S,3S,5S)-5-(4,6-Dimethyl-pyrimidinyl-5-oxyacetyl)amino-2-((3R,3aS,6aR)-bis-tetrahydrofuran-3-yl-oxycarbonyl)amino-1,6-diphenyl-3-hydroxyhexane]: on HIV-1 protease, the inhibition at 0.0005 µM was found to be 56%. Besides, in series [1], the CC50 at 120 h is over 100 µM. Further, the pEC50 in the series on HIVIIIB is 6.09.

Take `Cc1cccc(C)c1NCC(=O)N[C@@H](Cc1ccccc1)[C@@H](O)C[C@H](Cc1ccccc1)NC(=O)O[C@H]1CO[C@H]2OCC[C@H]21` [Example 9, (2S,3S,5S)-5-(N-(2,6-Dimethyl-phenyl)aminoacetyl)amino-2-((3R,3aS,6aR)-bis-tetrahydrofuran-3-yl-oxycarbonyl)amino-1,6-diphenyl-3-hydroxyhexane]: the inhibition at 0.0005 µM at HIV-1 protease is 69%. In series [1], the CC50 at 120 h stood at 56 µM. Besides, the pEC50 in the series with HIVIIIB is 6.60.

Molecule `Cc1cc(C)c(OCC(=O)N[C@@H](Cc2ccccc2)C[C@H](O)[C@H](Cc2ccccc2)NC(=O)O[C@H]2CO[C@H]3OCC[C@H]32)c(C)c1` [Example 11, (2S,3S,5S)-5-(2,4,6-Trimethyl-phenoxyacetyl)amino-2-((3R,3aS,6aR)-bis-tetrahydrofuran-3-yl-oxycarbonyl)amino-1,6-diphenyl-3-hydroxyhexane] came in with an inhibition at 0.0005 µM against HIV-1 protease of 82%. Also, the CC50 at 120 h in series [1] worked out at 48 µM. In the series on HIVIIIB, this molecule had a pEC50 of 6.69.

In turn, `COc1cccc(C)c1OCC(=O)N[C@@H](Cc1ccccc1)C[C@H](O)[C@H](Cc1ccccc1)NC(=O)O[C@H]1CO[C@H]2OCC[C@H]21` [Example 12, (2S,3S,5S)-5-(2-Methoxy-6-methylphenoxyacetyl)amino-2-((3R,3aS,6aR)-bis-tetrahydrofuran-3-yl-oxycarbonyl)amino-1,6-diphenyl-3-hydroxyhexane] yielded an inhibition at 0.0005 µM on HIV-1 protease of 74%. In addition, in series [1], the CC50 at 120 h is over 32 µM. Moreover, in the series on HIVIIIB, the pEC50 is 6.45.

Molecule `Cc1cccc(C)c1OCC(=O)N[C@@H](Cc1ccccc1)[C@@H](O)C[C@H](Cc1ccccc1)NC(=O)OC1CCSC1C(C)C` (stereo partly drawn) [Example 27, (2S,3S,5S)-2-(2,6-Dimethylphenoxyacetyl)amino-5-(3(R,S)-2(R,S)-isopropyl-tetrahydrothienyloxycarbonyl)amino-1,6-diphenyl-3-hydroxyhexane] displayed an inhibition at 0.0013 µM against HIV-1 protease of 50%.

`O=C(N[C@@H](Cc1ccccc1)C[C@H](O)[C@H](Cc1ccccc1)NC(=O)c1cccc(O)c1)O[C@H]1CO[C@H]2OCC[C@H]21` [Example 66, (2S,3S,5S)-2-(3-Hydroxy-benzoyl)amino-5-((3R,3aS,6aR)-bis-tetrahydrofuran-3-yl-oxycarbonyl)amino-1,6-diphenyl-3-hydroxyhexane]: on HIV-1 protease, testing at 0.0005 µM gave an inhibition of 68%. The molecule further gave a pEC50 in the series on HIVIIIB of 6.19.
